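Compound exposure: 48 hours, 5 concentrations, 96-well plates. The concentration for 50% growth inhibition is given as GI50.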 Active and inactive are the calls of the source. Rule as the data show it: active = GI50 up to about 1.1 µM and inactive = higher.
Columns and labels:
Experiment in all cases: inhibition of tumour cell growth, NCI panel, 48 h
[1] = tested on: A549
[2] = tested on: EKVX
[3] = tested on: HCT-15
[4] = tested on: HL-60
[5] = tested on: HT-29
[6] = tested on: IGROV-1
[7] = tested on: LOX IMVI
[8] = tested on: M14
[9] = tested on: OVCAR-4
[10] = tested on: OVCAR-8
[11] = tested on: RXF 393
[12] = tested on: SF-268
[13] = tested on: SK-MEL-28
[14] = tested on: SK-OV-3
[15] = tested on: SNB-19
[16] = tested on: SNB-75
[17] = tested on: SNB-78
[18] = tested on: UACC-257
[19] = tested on: CAKI-1
[20] = tested on: RPMI-8226

| SMILES | GI50 [1] | GI50 [2] | GI50 [3] [µM] | GI50 [4] | GI50 [5] | GI50 [6] | GI50 [7] | GI50 [8] | GI50 [9] | GI50 [10] | GI50 [11] | GI50 [12] | GI50 [13] | GI50 [14] | GI50 [15] | GI50 [16] | GI50 [17] | GI50 [18] | GI50 [19] | GI50 [20] |
| --- | --- | --- | --- | --- | --- | --- | --- | --- | --- | --- | --- | --- | --- | --- | --- | --- | --- | --- | --- | --- |
| Cc1cn(C2CC(O)C(CO)C2C)c(=O)[nH]c1=O (centres undefined) | > 100 µM (inactive) | > 100 µM (inactive) | > 100 | > 100 µM (inactive) | > 100 µM (inactive) | > 100 µM (inactive) | > 100 µM (inactive) | > 100 µM (inactive) | > 100 µM (inactive) | > 100 µM (inactive) | > 100 µM (inactive) | > 100 µM (inactive) | > 100 µM (inactive) | > 100 µM (inactive) | > 100 µM (inactive) | > 100 µM (inactive) | > 100 µM (inactive) | > 100 µM (inactive) |  |  |
| C=C1C[C@@H]2C[C@@H](C)CC(O)[C@]2(CCCN)C1O (some centres undefined) | > 100 µM (inactive) | > 100 µM (inactive) |  | > 100 µM (inactive) | > 100 µM (inactive) | > 100 µM (inactive) | > 100 µM (inactive) | > 100 µM (inactive) | > 100 µM (inactive) | > 100 µM (inactive) | > 100 µM (inactive) | > 100 µM (inactive) | > 100 µM (inactive) | > 100 µM (inactive) | > 100 µM (inactive) | > 100 µM (inactive) | > 100 µM (inactive) | > 100 µM (inactive) | > 100 µM (inactive) | > 100 µM (inactive) |
| COc1cc(O)c2c(c1)C(=O)c1cc(C)cc(O)c1C2=O [PHYSCION] | > 100 µM (inactive) | > 100 µM (inactive) |  | > 100 µM (inactive) | > 100 µM (inactive) | > 100 µM (inactive) | > 100 µM (inactive) | > 100 µM (inactive) | > 100 µM (inactive) | > 100 µM (inactive) |  | > 100 µM (inactive) | > 100 µM (inactive) | > 100 µM (inactive) | > 100 µM (inactive) | 93.8 µM (inactive) | > 100 µM (inactive) | > 100 µM (inactive) | > 100 µM (inactive) | > 100 µM (inactive) |
| CN1CCN(P2(=S)Oc3ccc4ccccc4c3-c3c(ccc4ccccc34)O2)CC1 | 40.3 µM (inactive) | 29.6 µM (inactive) | 28.7 | 13.1 µM (inactive) | 19.6 µM (inactive) | 53.1 µM (inactive) | 18.9 µM (inactive) |  | 36.6 µM (inactive) | 37.2 µM (inactive) | 25.6 µM (inactive) | 38.4 µM (inactive) | 41.1 µM (inactive) | > 71.3 µM (inactive) | 39.6 µM (inactive) | 37.5 µM (inactive) | 50.4 µM (inactive) | 29.7 µM (inactive) | 15.4 µM (inactive) | 7.8 µM (inactive) |
| CCCCCCCCCCCCCCCCCc1cc(Cl)nc(Cl)n1 | > 100 µM (inactive) | > 100 µM (inactive) | > 100 | 50.8 µM (inactive) | > 100 µM (inactive) | > 100 µM (inactive) | > 100 µM (inactive) | > 100 µM (inactive) | > 100 µM (inactive) | > 100 µM (inactive) | > 100 µM (inactive) | > 100 µM (inactive) | > 100 µM (inactive) | > 100 µM (inactive) | > 100 µM (inactive) | > 100 µM (inactive) |  | > 100 µM (inactive) |  | 43.7 µM (inactive) |
| CNC1=C(C)C(=O)C2=C(C1=O)C(COC(N)=O)C1(OC)C3NC3CN21 (centres undefined) | 0.106 µM (active) | 22 µM (inactive) | 0.391 | 2.02 µM (inactive) | 0.207 µM (active) | 3.53 µM (inactive) | 0.152 µM (active) | 0.22 µM (active) | 2.95 µM (inactive) | 0.644 µM (active) |  | 0.783 µM (active) | 1.29 µM (inactive) | 1.27 µM (inactive) | 0.268 µM (active) | 0.141 µM (active) |  | 0.951 µM (active) | 0.0653 µM (active) | 3.13 µM (inactive) |
| C/C(=N\NS(=O)(=O)c1ccccc1)c1ccccc1 | > 100 µM (inactive) | > 100 µM (inactive) | > 100 | > 100 µM (inactive) | > 100 µM (inactive) | > 100 µM (inactive) | > 100 µM (inactive) |  | > 100 µM (inactive) | > 100 µM (inactive) | > 100 µM (inactive) | > 100 µM (inactive) | > 100 µM (inactive) | > 100 µM (inactive) | > 100 µM (inactive) | > 100 µM (inactive) | > 100 µM (inactive) | > 100 µM (inactive) | > 100 µM (inactive) | > 100 µM (inactive) |

From ChEMBL document CHEMBL1201862, “PubChem BioAssay data set” (2004)
